# How the values were obtained:
# Annexin 2 = biological target: T1, Annexin 2 (Homo sapiens, UniProt P07355); assay: Pull-down with biotinylated withaferin A on NeutrAvidin beads with competition; assay type: binding; conditions: competition with WA 40 μM, 36 kDa band, FIG. 11
# T1 construct: incubated with pre-cleared whole cell extract that had been previously supplemented with WA (40 μM) or an equal volume of DMSO; endogenous in cells
# Experimental: FIG. 11. Stable and specific binding of Annexin 2 by withaferin A. Biotinylated withaferin A (WA) was captured on NeutrAvidin (NA)-coated beads and incubated with pre-cleared whole cell extract that had been previously supplemented with WA (40 μM) or an equal volume of DMSO. After low stringency washes, proteins bound to beads were eluted, size fractioned by SDS-PAGE, stained with Sypro Ruby, and visualized by UV illumination. The arrowhead indicates the position of a 36 kDa band effectively competed away by WA. Pre-clear lane: Proteins in whole cell extract that bound non-specifically to NA beads alone (no immobilized WA present) during pre-clearing incubation.
# [1] = tested on: primary astrocytes / primary neurons co-culture; assay: Glutathione depletion astrocyte-neuron co-culture model (HCA, MAP-2 readout); assay type: cell-based, rat; conditions: astrocytes pre-treated 24 h, then 5 mM homocysteic acid 48 h, FIG. 14
# Experimental: FIGS. 14A and 14B. (A) Withaferin A (WA) mediates astrocyte-dependent neuronal protection. Primary astrocytes cultured from the cerebral cortices of postnatal rat pups, were treated with WA for 24 h, and were washed with serum-containing media to completely remove WA from the culture media. […] 48 h later neuronal viability was assessed by quantifying the neuronal marker MAP-2. (B) WA-mediated neuroprotection from oxidative stress.
# WA was tested in a second model for neuroprotection that utilizes primary astrocytes cultured from the cerebral cortices of postnatal day 1-3 rat pups. In the CNS, astrocytes play a pivotal role in protecting neurons from oxidative stress, a hallmark of nearly all neurodegenerative diseases and disorders. […]
# In this assay, which is summarized in FIG. 13, primary astrocytes were isolated from the cerebral cortices of postnatal day 1-3 rat pups, allowed to grow to confluency for ˜2 weeks, and then treated with test compound for 24 h. […] Quantification of the neuron-specific protein microtubule-associated protein-2 (MAP-2) is used to monitor neuronal specific death in this astrocyte-neuron co-culture model as described previously (Carrier et al., J. Neuroscience Methods, 154: 239-244.2006). […] HRP activity is then measured using a reaction buffer containing 150 uM amplex red (Molecular Probes) and 800 uM hydrogen peroxide (Sigma). […]
# [2] = tested on: rat spinal cord motor neurons; assay: Neurotrophic factor (BDNF) deprivation-induced apoptosis of spinal cord motor neurons; assay type: cell-based; conditions: for reduction in cell death of motor neurons plated in the absence of BDNF: 24 hours, calcein-A
# Experimental: FIGS. 12A-12D. Neuronal survival and increase in neurite length as assessed by calcein-A staining which is taken up by viable neurons. (A) In the absence of BDNF (−BDNF) there is approximately 40% reduction in viable motor neurons compared to wells with BDNF present (+BDNF). Addition of withaferin A (WA) to the motor neuron cultures plated in the absence of BDNF results in a 50% reduction in cell death at 200 nM (0.2 μM) concentration of WA and a 75% reduction in cell death at 400 nM (0.4 μM) as assessed after 24 hours. […] (B) Graph showing percent protection. (C) Motor neuron viability assay of WA. (D) WA increases neurite length (normalized to control) measured at the end of the experiment.
# Neurotrophic factor deprivation-induced apoptosis of rat spinal cord motor neurons was used as a model system to evaluate neuroprotective activity of withaferin A. Primary spinal cord motor neurons were purified from E15 rats. These cells were dissociated from the ventral spinal cord, enriched by density gradient centrifugation, and purified by magnetic bead cell separation using an antibody against p75NTR which is expressed on the cell surface of motor neurons at this developmental age. The resulting cultures are ˜96% motor neurons as assessed by HB9 or islet-1 immunoreactivity and are virtually devoid of astrocytes or microglia. For viability experiments, the cells were plated at a low density (500 cells/well of a 96-well plate). In these cultures, motor neuron survival is highly dependent on trophic factors added to the culture media (in the form of BDNF, GDNF, or cardiotrophin-1), as ˜50% of the attached cells will undergo apoptosis when deprived of trophic factors (Oppenheim, R. W., et al., Nature, 360: 755-757; Henderson, C. E., et al., Science, 266: 1062-1064, 1994). BDNF was used as the trophic factor.
# Neuronal survival was assessed by staining with calcein-A, a fluorescent dye that is taken up by viable neurons. […]
# In some experiments, a fluorescence image of the entire well within a plate was captured using a flash cytometer (Trophos). […]
# T1 sequence (P07355 whole entry, species assumed): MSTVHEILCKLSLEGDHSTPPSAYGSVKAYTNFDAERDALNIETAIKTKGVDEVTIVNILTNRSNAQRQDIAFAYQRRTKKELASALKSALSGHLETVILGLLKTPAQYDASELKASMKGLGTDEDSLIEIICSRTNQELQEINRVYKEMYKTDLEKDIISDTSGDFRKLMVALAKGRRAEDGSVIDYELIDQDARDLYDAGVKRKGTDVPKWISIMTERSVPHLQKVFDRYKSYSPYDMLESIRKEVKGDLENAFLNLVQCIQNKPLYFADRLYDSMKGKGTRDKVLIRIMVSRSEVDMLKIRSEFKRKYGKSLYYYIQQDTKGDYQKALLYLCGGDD
structure (smiles),measurement,setting,value
CC1=C(CO)C(=O)OC([C@@H](C)C2CCC3C4C[C@H]5O[C@]56[C@@H](O)C=CC(=O)[C@]6(C)C4CC[C@@]32C)C1 (some centres unmarked) [Withaferin A],binding to annexin II,Annexin 2,binds stably and selectively to annexin II
same,astrocyte-dependent protection of neurons from oxidative stress (MAP-2),[1],enhance the protection of neurons exposed to oxidative stress
same,reduction in cell death of motor neurons plated in the absence of BDNF,[2]; 200 nM (0.2 μM),50%
same,reduction in cell death of motor neurons plated in the absence of BDNF,[2]; 400 nM (0.4 μM),75%
same,neurite growth of motor neurons,[2]; FIG. 12D,induces the growth of neurites
